According to patent publication US20240156800A1, “EP300 DEGRADER AND USES THEREOF IN NEUROBLASTOMA” (DANA-FARBER CANCER INSTITUTE, INC., priority 2021, published 2024):
Read-outs that look alike come from different tables or passages of the source.

How the values were obtained:
[1] = target: T1, EP300, CRBN and CBP in Kelly cell lysates (Homo sapiens, UniProt Q09472+Q96SW2); assay: Biotin-JQAD1 pulldown from Kelly cell lysates (streptavidin purification, western blotting); type: binding; conditions: Kelly cell lysates co-treated with excess pomalidomide
T1 construct: added to 500 μg of whole Kelly cell lysate; endogenous in cells; host or cells: Kelly neuroblastoma cells (whole cell lysate)
Description: Biotin-JQAD1, synthesized below, was added to 500 μg of whole Kelly cell lysate prepared in immunoprecipitation (IP) lysis buffer (Pierce™ Biotechnology), and incubated for 16 h at 4° C. with end-over-end mixing. One hundred μL of high-capacity streptavidin agarose resin (Pierce™ Biotechnology) was packed into a 1.5 mL Eppendorf tube®, washed three times with cold PBS, prior to addition of cell lysate. Lysate was incubated at room temperature for 10 minutes prior to centrifugation and washing, followed by elution in NuPAGE™ LDS sample buffer with reducing agent (Thermo-Fisher Scientific). Samples were processed by sodium dodecyl sulphate-polyacrylamide gel electrophoresis (SDS-PAGE) as above and blotted using anti-EP300, anti-CRBN, or anti-CBP antibodies.

CBP = target: T2, CBP (Homo sapiens, UniProt Q92793); assay: Western blotting of CBP in treated NB cells; type: cell-based
T2 construct: Cells growing in culture were lysed for whole cell lysates; endogenous in cells; host or cells: Kelly, NGP, SIMA, BE2C neuroblastoma cells; Kelly xenografts in NSG mice
T2 sequence (Q92793 whole entry): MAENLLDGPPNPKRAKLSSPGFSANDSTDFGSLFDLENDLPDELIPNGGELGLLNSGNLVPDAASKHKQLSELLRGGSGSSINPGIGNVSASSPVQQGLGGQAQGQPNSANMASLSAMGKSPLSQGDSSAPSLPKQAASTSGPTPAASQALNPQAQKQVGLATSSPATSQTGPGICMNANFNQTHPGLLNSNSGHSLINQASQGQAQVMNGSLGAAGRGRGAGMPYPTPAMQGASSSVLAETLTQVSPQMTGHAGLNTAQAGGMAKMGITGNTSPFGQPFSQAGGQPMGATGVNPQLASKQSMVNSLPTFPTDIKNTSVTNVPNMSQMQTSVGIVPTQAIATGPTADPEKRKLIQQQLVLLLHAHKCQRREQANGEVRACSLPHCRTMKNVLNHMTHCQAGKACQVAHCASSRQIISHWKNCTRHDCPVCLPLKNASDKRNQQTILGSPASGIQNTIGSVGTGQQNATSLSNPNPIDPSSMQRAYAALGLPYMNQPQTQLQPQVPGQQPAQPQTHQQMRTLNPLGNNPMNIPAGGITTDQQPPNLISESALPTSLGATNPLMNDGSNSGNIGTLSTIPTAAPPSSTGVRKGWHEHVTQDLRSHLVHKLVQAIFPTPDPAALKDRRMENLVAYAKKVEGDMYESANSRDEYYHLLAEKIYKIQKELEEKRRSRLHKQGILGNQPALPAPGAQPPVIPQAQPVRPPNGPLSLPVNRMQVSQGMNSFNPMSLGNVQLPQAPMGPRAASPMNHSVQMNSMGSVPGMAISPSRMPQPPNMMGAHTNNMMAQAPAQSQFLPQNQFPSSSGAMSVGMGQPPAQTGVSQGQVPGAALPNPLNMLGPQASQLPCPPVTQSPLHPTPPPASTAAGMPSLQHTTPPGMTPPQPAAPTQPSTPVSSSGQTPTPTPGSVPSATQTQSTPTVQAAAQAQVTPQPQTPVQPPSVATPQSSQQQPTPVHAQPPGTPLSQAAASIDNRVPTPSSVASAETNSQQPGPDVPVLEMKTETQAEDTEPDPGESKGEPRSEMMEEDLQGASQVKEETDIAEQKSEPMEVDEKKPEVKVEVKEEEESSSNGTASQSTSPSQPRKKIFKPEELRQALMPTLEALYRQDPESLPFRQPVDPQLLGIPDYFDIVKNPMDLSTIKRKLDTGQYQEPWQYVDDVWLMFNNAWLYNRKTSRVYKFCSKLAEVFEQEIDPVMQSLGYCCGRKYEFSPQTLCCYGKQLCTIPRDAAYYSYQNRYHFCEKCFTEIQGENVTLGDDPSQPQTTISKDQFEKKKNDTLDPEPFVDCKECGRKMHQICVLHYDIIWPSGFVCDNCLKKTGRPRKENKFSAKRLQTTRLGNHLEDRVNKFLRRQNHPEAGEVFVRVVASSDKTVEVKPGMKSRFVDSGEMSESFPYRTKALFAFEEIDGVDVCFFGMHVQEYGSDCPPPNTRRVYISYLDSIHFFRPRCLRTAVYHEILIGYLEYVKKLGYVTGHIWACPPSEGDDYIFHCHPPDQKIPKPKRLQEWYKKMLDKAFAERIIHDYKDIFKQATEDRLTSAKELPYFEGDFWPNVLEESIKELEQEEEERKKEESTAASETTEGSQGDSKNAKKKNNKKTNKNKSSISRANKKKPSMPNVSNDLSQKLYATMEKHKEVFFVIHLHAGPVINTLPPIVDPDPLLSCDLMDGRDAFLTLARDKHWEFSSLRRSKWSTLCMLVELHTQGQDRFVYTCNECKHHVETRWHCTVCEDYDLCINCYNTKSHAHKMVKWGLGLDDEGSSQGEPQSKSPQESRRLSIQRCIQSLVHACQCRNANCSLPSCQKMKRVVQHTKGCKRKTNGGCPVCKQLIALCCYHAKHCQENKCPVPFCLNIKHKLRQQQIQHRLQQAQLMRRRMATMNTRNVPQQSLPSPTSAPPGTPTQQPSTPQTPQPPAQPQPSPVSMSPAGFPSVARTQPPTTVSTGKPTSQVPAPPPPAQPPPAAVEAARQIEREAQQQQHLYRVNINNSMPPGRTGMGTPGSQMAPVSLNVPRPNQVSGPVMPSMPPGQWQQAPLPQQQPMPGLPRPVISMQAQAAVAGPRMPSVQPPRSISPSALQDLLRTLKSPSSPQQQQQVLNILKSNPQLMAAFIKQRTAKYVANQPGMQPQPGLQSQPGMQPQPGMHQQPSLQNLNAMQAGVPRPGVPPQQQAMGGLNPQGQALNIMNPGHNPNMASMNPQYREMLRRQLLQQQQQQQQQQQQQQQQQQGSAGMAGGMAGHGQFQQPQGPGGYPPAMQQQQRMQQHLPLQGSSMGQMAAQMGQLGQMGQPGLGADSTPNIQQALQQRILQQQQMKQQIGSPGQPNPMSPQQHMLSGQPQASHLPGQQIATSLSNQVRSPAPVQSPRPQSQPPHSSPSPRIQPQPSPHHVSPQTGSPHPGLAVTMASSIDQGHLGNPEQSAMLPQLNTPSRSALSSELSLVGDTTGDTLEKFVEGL
Description: (§1) Cells growing in culture were lysed for whole cell lysates as described in Durbin et al. Nat. Genet. 50:1240-1246 (2018) and Wang et al. Nat. Commun. 10:5622 (2019). Nuclear lysates were prepared using the NE-PER® nuclear lysate kit (Thermo Scientific™) according to the manufacturer's protocol. Chromatin lysates were prepared with the total histone extraction kit (Epigentek). Briefly, equivalent amounts of protein were resolved by western blotting using 4-12% Bis-Tris NuPAGE™ gels (Thermo-Fisher Scientific) prior to transfer, and immunoblotting using primary antibodies to: MYCN (1:1000, Cell Signaling Technology®), H3K27ac (1:1000, Abcam), total H3 (1:1000, Cell Signaling Technology®), EP300 (1:1000, Abcam), CBP (1:500, Cell Signaling Technology®), Cas9 (1:1000, Cell Signaling Technology®), cleaved-PARP1 (1:1000, Cell Signaling Technology), cleaved Caspase-3 (1:1000, Cell Signaling Technology®), β-actin (1:1000, Cell Signaling Technology®), GATA3 (1:1000, EMD Millipore™), TFAP2β (1:1000, Cell Signaling Technology®), Vinculin (1:1000, EMD Millipore™), CRBN (1:1000, Cell Signaling Technology®), HAND2 (1:1000, Santa Cruz Biotechnology). Secondary antibodies were horseradish peroxidase (HRP)-conjugated anti-rabbit or anti-mouse (1:5000, Santa Cruz Biotechnology), incubated prior to exposure to enhanced chemiluminescence reagents (GE, Amersham). For immunoprecipitation, equal amounts of protein were diluted in buffer C as described in Mansour et al. Science 346:1373-1377 (2014) and incubated with antibodies covalently conjugated to Dynabeads™ M-270 beads (Thermo-Fisher Scientific) overnight according to the manufacturer's directions. Antibodies used included: H3K27ac, EP300 (Abcam), CBP, TFAP2β (Cell Signaling Technology®), rabbit immunoglobulin G (IgG) (Santa Cruz Biotechnology®). Immunoprecipitated protein was isolated as per the manufacturer's directions and subjected to western blotting, as described above, or mass spectrometry.

[2] = tested on: cleaved caspase-3 and cleaved PARP1; assay: Western blotting of apoptosis markers; type: cell-based, human; conditions: Kelly (1 μM) and NGP (2.5 μM) cells, 12-36 h
Description: as §1

[3] = tested on: pro- and anti-apoptotic mRNA transcripts; assay: ERCC spike-in RNA-seq of treated Kelly cells; type: cell-based, human; conditions: 500 nM, 24 h
Description: For in vitro analyses, total RNA was extracted from control […] or JQAD1 treated Kelly cells using TRIzolTM reagent (Ambion). Prior to extraction, exogenous spike-in of synthetic External RNA Control Consortium (ERCC) RNA controls were added based on cell number (Ambion). Samples were treated with RNAse-free DNAse I and spin purified using the Qiagen® RNeasy Kit (Qiagen®). Purified RNA samples were subjected to library construction with poly-adenylation preparation and sequencing using the Illumina NextSeq® 500 (paired end, 75bp reads). RNA-seq reads were aligned to a reference index containing the sequences of the hg19 revision of the human reference genome and the ERCC spike-in probes using hisat 2.1.0. Expression was quantified using sorted BAMs, a gene reference built using ERCC sizes and RefSeq genes downloaded Jul. 15, 2017, and htseq-count with parameters -I gene_id- stranded=reverse -f bam -m intersection-strict. Read counts were converted to transcripts per million (TPM) and used for cell number-normalization. The expression of all RefSeq genes and ERCC probes was floored at 0.01 and a pseudocount of 0.1 was added to all entries. Values were normalized by equilibrating the expression of the ERCC probes among experiments using normalize.loess from the affy R package. The ERCC-normalized expression of each gene after 24 h of either […] or JQAD1 treatment was compared against its expression in dimethyl sulfoxide (DMSO) treated samples to create two-fold changes.

[4] = Pharmacokinetic analysis after a single intraperitoneal dose in CD1 mice; type: in vivo, mouse; conditions: 10 mg/Kg single IP dose, murine serum
Description: For toxicity studies, four female CD1 mice (Charles River Laboratories) were injected intraperitoneally (IP) with single doses of 10 mg/Kg (R,S)-JQAD1 solubilized in 10% hydroxypropyl β-cyclodextrin (Sigma-Aldrich®) in sterile water. Following injection, blood concentration of (R,S)-JQAD1 was measured by serial measurements of animal serum at time points out to 24 h, by liquid chromatography with tandem mass spectrometry (LC-MS/MS) analysis. Pharmacokinetics were performed at ChemPartner in Shanghai, China, using LC-MS/MS method and pharmacokinetics parameters (Tmax, Cmax, T1/2, AUC, etc.) calculated with WinNonlin® V 6.2 statistics software (Pharsight Corporation) using a noncompartmental model. For maximally tolerated dose (MTD) testing, six female CD1 mice were treated with daily IP doses of (R,S)-JQAD1 at 10, 20, or 40 mg/kg. Animals were monitored for animal weight, grooming and behavior daily without noted effects. For MTD testing in humanized CRBN knockin (Balb/c CRBN^ILE391VAL) (Jackson Laboratories), 6 mice per treatment group were treated with either vehicle control or (R,S)-JQAD1 at 40 mg/kg/day by IP injection. Animal weights, behavior and grooming were monitored daily, for a total of 21 days. At day 14, three mice per treatment group were sacrificed and tissues fixed for immunohistochemistry. Blood samples were obtained by retro-orbital puncture and blood analyzed at the Small Animal Imaging Facility at Beth Israel Deaconess Medical Center (Boston, MA), on a Hemavet® 9500FS (Drew Scientific) for blood counts, creatinine, AST, ALT, ALP, GGTP, and BUN measurements.

SMILES: C[C@H](N(Cc1ccc(F)cc1)C(=O)CN1C(=O)O[C@@]2(CCc3cc(NC(=O)CCCCCCCCCCCNc4ccc5c(c4)C(=O)N(C4CCC(=O)NC4=O)C5=O)ccc32)C1=O)C(F)(F)F (stereo partly drawn) [JQAD1, 12-((2-(2,6-dioxopiperidin-3-yl)-1,3-dioxoisoindolin-5-yl)amino)-N-((R)-3′-(2-((4-fluorobenzyl)((S)-1,1,1-trifluoropropan-2-yl)amino)-2-oxoethyl)-2′,4′-dioxo-2,3-dihydrospiro[indene-1,5′-oxazolidin]-5-yl)dodecanamide]
- effect of excess pomalidomide on the interaction [1]: partial loss of the interaction between JQAD1, CRBN, and EP300
- CBP expression levels (CBP; Kelly cells, 24 h): neither compound had significant effects on expression levels of CBP
- CBP detection at 24 h (CBP; Kelly, NGP and SIMA cells, 24 h): could still be detected
- CBP expression with extended treatment (CBP; Kelly, NGP and SIMA cells, extended treatment): loss of CBP expression was observed
- apoptosis: cleavage of caspase-3 and PARP1 [2]: induction of cellular apoptosis marked by cleavage of caspase-3 and PARP1
- transcript levels of BIM, BID, PUMA, BAX, BCL2 and MCL1 [3]: upregulation
- gene set enrichment analysis, hallmark gene sets ([3]; JQAD1 versus A485): enrichment of the apoptosis hallmark gene set
- half-life [4]: 13.3 (+/−3.37) h
- Cmax ([4]; female, mouse): 7 µM
- half-life ([4]; female, mouse, read-out: half-life (converted)): 13.3 h
